Reference: ChEMBL document CHEMBL1201862, “PubChem BioAssay data set” (2004)
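Exposure lasted 48 hours, with cells grown in 96-well plates and compounds tested at five concentrations. GI50 is the concentration that inhibits growth by half.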 Active and inactive are the calls of the source. No stated cut-off is given here; in the data, active = GI50 up to about 1.1 µM and inactive = higher.

What was measured:
Experiment in all cases: NCI tumour cell line growth inhibition, 48 h
A498 = system: A498
ACHN = system: ACHN
DLD-1 = system: DLD-1
EKVX = system: EKVX
HCT-116 = system: HCT-116
HOP-92 = system: HOP-92
HT-29 = system: HT-29
M19-MEL = system: M19-MEL
MOLT-4 = system: MOLT-4
Malme-3M = system: Malme-3M
NCI-H460 = system: NCI-H460
OVCAR-4 = system: OVCAR-4
OVCAR-5 = system: OVCAR-5
OVCAR-8 = system: OVCAR-8
RXF 393 = system: RXF 393
SF-295 = system: SF-295
SK-MEL-5 = system: SK-MEL-5
SNB-75 = system: SNB-75
UACC-257 = system: UACC-257
786-0 = system: 786-0

Row | SMILES | GI50 (A498) | GI50 (ACHN) | GI50 (DLD-1) | GI50 (EKVX) | GI50 (HCT-116) | GI50 (HOP-92) | GI50 (HT-29) | GI50 (M19-MEL) | GI50 (MOLT-4) | GI50 (Malme-3M) | GI50 (NCI-H460) | GI50 (OVCAR-4) | GI50 (OVCAR-5) | GI50 (OVCAR-8) | GI50 (RXF 393) | GI50 (SF-295) | GI50 (SK-MEL-5) | GI50 (SNB-75) | GI50 (UACC-257) | GI50 (786-0)
1 | O=[N+]([O-])c1ccccc1S(=O)(=O)c1ccccc1 | > 100 µM (inactive) | > 100 µM (inactive) | > 100 µM (inactive) | > 100 µM (inactive) | > 100 µM (inactive) | 80.7 µM (inactive) | > 100 µM (inactive) | 39.4 µM (inactive) | > 100 µM (inactive) | > 100 µM (inactive) | > 100 µM (inactive) | 52.6 µM (inactive) | > 100 µM (inactive) | > 100 µM (inactive) | 77.8 µM (inactive) | > 100 µM (inactive) | 81.7 µM (inactive) | 23 µM (inactive) | > 100 µM (inactive) | 
2 | COC(=O)[C@]12CC=C3O[C@@H]4OC5(CCCCC5)O[C@@H]4[C@H]3C1C(=O)C=CC2=O (stereo partly drawn) | 17.9 µM (inactive) | 18.5 µM (inactive) | 15.5 µM (inactive) | 33.2 µM (inactive) | 17.5 µM (inactive) | 18.7 µM (inactive) | 17.9 µM (inactive) | 16 µM (inactive) | 7.03 µM (inactive) | 17.9 µM (inactive) | 22.3 µM (inactive) | 17.1 µM (inactive) | 20.5 µM (inactive) | 20.2 µM (inactive) | 8.73 µM (inactive) | 24.6 µM (inactive) | 18.6 µM (inactive) | 18.8 µM (inactive) | 16.3 µM (inactive) | 17 µM (inactive)
3 | Cc1ccc(NC(=O)CC2Sc3ccccc3NC2=O)cc1C (stereo not drawn) | 37.9 µM (inactive) | 54.8 µM (inactive) | > 100 µM (inactive) | > 100 µM (inactive) | 41.6 µM (inactive) | 26 µM (inactive) | 67.1 µM (inactive) | > 100 µM (inactive) | 8.22 µM (inactive) | > 100 µM (inactive) | 58.6 µM (inactive) | 56.2 µM (inactive) | > 100 µM (inactive) | 46.8 µM (inactive) | 29.9 µM (inactive) | > 100 µM (inactive) | 41.4 µM (inactive) | 39.8 µM (inactive) | > 100 µM (inactive) | 
4 | CN(C)C(=S)/N=c1\ssc(=S)n1Cc1ccco1 | 1.38 µM (inactive) | 32.3 µM (inactive) | 2.86 µM (inactive) | 6.9 µM (inactive) | 1.53 µM (inactive) | > 100 µM (inactive) | 0.998 µM (active) | 2.16 µM (inactive) | 2.09 µM (inactive) | 3.79 µM (inactive) | 1.34 µM (inactive) | 13.6 µM (inactive) | 32 µM (inactive) | 3.79 µM (inactive) | 0.998 µM (active) | 2.1 µM (inactive) | 1.22 µM (inactive) | 0.771 µM (active) | 3.44 µM (inactive) | 3.72 µM (inactive)
